Values of other authors, collected in patent US6366801B1, “Pharmaceutically enhanced low-energy radiosurgery” (Sirius Medicine, LLC, priority 1997, dated 2002).

Key:
[1] = test system: cells in vitro; conditions: iodine concentration of 50 mg/ml, cells in vitro (Dawson et al.)
[2] = test system: brain tumors; conditions: low-energy x-rays and iodine, brain tumors in rabbits (Iwamoto et al.)
[3] = test system: lymphocytes; conditions: iodine with low-energy photons, lymphocytes (Santos Mello et al.)

II [iodine]
effect on radiation damage to cells [1]: radiation enhancement of cell damage | dose enhancement [2]: about 30% | dose enhancement [3]: up to 3
